Assay results: ChEMBL document CHEMBL5291721, “A preclinical secondary pharmacology resource illuminates target-adverse drug reaction associations of marketed drugs” (Nat Commun, 2023)

Key:
[1] = target: T1, Muscarinic acetylcholine receptor M1 (Homo sapiens, UniProt P11229); format: functional, cell-based
T1 sequence (P11229 whole entry): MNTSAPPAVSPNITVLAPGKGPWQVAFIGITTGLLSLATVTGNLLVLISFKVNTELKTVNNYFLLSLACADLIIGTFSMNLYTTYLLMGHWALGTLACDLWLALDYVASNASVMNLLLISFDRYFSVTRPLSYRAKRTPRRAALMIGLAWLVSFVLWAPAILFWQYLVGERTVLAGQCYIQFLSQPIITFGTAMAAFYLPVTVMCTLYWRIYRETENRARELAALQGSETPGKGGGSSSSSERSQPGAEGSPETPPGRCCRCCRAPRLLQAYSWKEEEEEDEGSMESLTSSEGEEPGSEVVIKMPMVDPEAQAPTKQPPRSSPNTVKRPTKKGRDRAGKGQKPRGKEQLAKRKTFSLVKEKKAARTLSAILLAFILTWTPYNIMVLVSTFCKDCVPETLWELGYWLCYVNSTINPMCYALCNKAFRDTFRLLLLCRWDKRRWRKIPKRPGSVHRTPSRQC

[2] = target: T2, Estrogen receptor (Homo sapiens, UniProt P03372)
T2 sequence (P03372 whole entry): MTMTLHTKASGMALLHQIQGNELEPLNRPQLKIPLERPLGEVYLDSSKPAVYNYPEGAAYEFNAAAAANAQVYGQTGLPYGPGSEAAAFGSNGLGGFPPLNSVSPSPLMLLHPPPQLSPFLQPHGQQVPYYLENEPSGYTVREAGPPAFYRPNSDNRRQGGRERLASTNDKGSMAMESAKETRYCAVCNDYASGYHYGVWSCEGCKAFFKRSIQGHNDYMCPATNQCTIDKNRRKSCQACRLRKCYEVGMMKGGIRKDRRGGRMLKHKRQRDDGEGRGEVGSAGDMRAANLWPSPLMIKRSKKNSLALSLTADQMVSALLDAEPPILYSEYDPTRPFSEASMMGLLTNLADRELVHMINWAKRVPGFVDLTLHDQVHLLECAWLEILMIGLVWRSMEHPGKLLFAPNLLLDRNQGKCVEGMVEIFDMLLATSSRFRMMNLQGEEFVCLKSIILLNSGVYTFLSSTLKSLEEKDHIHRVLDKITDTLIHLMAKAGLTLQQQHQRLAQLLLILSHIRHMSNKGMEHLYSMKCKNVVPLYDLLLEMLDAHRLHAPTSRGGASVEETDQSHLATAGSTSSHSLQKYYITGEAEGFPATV

[3] = target: 5-hydroxytryptamine receptor 2B (Homo sapiens, UniProt P41595); format: functional, cell-based
[4] = target: Prostaglandin G/H synthase 1 (Homo sapiens, UniProt P23219); format: functional
[5] = target: T3, Endothelin-1 receptor (Homo sapiens, UniProt P25101)
T3 sequence (P25101 whole entry): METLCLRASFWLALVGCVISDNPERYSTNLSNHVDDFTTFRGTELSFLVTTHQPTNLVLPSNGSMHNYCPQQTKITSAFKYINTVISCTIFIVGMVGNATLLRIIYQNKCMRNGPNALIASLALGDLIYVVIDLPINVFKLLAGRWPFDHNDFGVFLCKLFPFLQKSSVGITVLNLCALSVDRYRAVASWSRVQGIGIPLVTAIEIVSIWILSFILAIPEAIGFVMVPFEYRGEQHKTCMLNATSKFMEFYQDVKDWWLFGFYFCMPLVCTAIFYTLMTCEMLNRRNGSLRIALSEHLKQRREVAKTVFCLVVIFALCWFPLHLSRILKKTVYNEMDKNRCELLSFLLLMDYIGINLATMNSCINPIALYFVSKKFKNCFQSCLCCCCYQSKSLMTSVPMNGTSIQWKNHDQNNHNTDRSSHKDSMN

[6] = target: Melanocortin receptor 4 (Homo sapiens, UniProt P32245)
[7] = target: T4, Glucocorticoid receptor (Homo sapiens, UniProt P04150)
T4 sequence (P04150 whole entry): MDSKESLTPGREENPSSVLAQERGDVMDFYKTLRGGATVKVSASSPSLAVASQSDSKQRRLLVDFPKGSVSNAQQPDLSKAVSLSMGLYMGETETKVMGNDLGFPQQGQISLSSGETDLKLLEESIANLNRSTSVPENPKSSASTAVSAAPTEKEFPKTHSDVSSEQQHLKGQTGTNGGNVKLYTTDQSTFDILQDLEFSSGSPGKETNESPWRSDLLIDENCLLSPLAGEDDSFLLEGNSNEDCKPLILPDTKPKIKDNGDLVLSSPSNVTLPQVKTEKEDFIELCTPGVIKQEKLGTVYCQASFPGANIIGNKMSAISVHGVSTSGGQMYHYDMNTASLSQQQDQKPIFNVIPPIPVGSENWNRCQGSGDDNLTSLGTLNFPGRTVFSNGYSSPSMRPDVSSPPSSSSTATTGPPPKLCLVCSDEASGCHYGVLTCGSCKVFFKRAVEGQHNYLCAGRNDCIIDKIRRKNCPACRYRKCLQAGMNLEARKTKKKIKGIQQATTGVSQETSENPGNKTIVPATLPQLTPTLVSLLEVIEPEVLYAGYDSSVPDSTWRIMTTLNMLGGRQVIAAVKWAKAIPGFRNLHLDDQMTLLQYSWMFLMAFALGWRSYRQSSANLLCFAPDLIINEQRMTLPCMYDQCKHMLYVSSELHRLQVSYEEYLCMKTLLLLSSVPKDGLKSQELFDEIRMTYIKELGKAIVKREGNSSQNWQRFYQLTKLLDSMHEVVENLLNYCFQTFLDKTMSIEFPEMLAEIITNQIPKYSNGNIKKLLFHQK

[8] = target: Mu-type opioid receptor (Homo sapiens, UniProt P35372)
[9] = target: Histamine H3 receptor (Homo sapiens, UniProt Q9Y5N1)
[10] = target: Histamine H2 receptor (Homo sapiens, UniProt P25021); format: functional, cell-based
[11] = target: 5-hydroxytryptamine receptor 2A (Homo sapiens, UniProt P28223); format: functional, cell-based
Further: assay procedure not described here.

Prostaglandin G/H synthase 1, sequence (P23219 whole entry): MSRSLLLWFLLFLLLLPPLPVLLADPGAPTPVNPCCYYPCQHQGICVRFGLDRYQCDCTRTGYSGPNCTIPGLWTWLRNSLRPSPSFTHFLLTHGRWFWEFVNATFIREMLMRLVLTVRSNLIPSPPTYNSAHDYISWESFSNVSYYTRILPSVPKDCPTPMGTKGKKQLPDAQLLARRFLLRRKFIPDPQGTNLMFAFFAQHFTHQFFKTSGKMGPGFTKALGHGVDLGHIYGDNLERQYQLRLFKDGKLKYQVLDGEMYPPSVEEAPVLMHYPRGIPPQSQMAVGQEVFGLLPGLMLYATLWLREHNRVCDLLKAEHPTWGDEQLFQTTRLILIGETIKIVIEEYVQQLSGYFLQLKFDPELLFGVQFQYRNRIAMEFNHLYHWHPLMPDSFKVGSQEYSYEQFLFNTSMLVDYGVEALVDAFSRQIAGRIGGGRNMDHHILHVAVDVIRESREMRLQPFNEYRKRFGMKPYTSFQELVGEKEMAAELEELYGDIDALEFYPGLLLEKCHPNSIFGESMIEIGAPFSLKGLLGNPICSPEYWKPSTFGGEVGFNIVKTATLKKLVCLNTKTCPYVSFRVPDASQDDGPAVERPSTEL
Melanocortin receptor 4, sequence (P32245 whole entry): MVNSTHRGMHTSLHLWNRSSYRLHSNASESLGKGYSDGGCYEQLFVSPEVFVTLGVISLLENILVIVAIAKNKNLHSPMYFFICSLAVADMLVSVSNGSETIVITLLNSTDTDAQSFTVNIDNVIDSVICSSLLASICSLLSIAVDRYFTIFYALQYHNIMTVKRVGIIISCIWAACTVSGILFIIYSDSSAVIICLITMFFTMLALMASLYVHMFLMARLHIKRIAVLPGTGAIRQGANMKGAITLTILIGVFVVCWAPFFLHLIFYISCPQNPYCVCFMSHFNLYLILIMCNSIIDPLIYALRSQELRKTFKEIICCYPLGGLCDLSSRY
5-hydroxytryptamine receptor 2B, sequence (P41595 whole entry): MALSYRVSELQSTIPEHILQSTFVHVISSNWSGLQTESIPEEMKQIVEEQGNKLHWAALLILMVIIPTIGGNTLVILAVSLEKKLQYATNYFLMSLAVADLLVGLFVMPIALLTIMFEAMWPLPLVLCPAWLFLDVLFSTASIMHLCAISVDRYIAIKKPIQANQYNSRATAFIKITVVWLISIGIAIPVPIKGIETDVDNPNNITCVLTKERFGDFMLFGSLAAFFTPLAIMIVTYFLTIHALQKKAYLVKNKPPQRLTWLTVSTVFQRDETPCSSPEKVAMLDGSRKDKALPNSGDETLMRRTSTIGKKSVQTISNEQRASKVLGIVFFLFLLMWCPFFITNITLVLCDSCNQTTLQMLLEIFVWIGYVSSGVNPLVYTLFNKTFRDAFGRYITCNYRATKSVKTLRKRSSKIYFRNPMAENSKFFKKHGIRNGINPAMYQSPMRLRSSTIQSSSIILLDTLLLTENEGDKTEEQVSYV
Mu-type opioid receptor, sequence (P35372 whole entry): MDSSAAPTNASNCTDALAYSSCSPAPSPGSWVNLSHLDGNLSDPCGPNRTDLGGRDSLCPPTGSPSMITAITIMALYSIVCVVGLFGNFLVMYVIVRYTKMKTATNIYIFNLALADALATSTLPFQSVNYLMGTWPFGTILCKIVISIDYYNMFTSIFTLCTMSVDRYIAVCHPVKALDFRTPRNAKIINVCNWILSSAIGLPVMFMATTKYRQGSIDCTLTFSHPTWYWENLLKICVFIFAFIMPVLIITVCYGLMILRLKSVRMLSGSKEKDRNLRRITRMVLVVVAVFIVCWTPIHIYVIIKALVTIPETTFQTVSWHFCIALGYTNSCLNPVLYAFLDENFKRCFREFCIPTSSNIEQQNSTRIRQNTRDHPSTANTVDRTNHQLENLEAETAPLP
Histamine H2 receptor, sequence (P25021 whole entry): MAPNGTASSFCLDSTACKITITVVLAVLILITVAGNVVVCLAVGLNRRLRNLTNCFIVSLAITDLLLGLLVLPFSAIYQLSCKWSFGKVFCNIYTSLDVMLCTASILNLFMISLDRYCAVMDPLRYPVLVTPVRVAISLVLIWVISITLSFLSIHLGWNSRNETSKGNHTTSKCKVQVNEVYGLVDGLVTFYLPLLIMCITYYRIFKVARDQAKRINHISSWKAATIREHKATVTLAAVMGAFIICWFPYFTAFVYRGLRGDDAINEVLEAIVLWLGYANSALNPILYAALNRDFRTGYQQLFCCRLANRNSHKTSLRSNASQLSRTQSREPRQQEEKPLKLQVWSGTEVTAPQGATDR
Histamine H3 receptor, sequence (Q9Y5N1 whole entry): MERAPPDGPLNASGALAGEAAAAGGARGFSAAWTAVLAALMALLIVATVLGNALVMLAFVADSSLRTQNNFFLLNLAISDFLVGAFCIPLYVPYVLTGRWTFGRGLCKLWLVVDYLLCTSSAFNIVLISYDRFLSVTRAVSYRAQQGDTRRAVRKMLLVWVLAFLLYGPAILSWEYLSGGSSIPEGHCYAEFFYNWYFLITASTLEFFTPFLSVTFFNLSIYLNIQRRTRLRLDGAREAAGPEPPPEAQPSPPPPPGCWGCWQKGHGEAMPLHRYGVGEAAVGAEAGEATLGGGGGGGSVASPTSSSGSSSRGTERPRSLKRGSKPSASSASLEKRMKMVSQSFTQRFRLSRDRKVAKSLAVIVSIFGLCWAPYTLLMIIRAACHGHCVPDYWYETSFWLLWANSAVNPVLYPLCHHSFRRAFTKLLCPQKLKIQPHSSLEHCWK
5-hydroxytryptamine receptor 2A, sequence (P28223 whole entry): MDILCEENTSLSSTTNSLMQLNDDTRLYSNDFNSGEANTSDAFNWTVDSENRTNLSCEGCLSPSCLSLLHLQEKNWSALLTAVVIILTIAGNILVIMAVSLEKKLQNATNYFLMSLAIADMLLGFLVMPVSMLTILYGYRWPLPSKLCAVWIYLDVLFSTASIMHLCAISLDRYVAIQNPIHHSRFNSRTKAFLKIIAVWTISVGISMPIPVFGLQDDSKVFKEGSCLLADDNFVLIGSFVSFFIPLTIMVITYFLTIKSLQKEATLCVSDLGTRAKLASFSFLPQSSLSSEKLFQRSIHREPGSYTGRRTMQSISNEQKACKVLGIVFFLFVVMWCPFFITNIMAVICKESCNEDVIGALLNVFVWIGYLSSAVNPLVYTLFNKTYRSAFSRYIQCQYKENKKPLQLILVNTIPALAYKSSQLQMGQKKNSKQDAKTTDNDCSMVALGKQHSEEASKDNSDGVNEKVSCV

C[C@@H](CN1CC(=O)NC(=O)C1)N1CC(=O)NC(=O)C1 [DEXRAZOXANE]
AC50 [1]: > 30 µM | AC50 [2]: > 30 µM | AC50 [3]: > 30 µM | AC50 [4]: 5.98 µM

Cc1ccc(C(C)C)c(O)c1 [THYMOL]
AC50 [1]: 13.9 µM | AC50 [2]: > 30 µM | AC50 [3]: > 30 µM | AC50 [4]: > 3 µM

OC[C@H]1NC[C@H](O)[C@@H](O)[C@H]1O
AC50 [1]: > 30 µM | AC50 [2]: > 30 µM | AC50 [3]: > 30 µM | AC50 [4]: > 30 µM

CN1CCN(C(c2ccccc2)c2ccc(Cl)cc2)CC1 (centres undefined) [CHLORCYCLIZINE]
AC50 [1]: 0.691 µM | AC50 [2]: > 30 µM | AC50 [3]: > 30 µM | AC50 [4]: > 30 µM

CN(C)CCC=C1c2ccccc2CCc2ccccc21 [AMITRIPTYLINE]
AC50 [5]: > 30 µM | AC50 [2]: > 30 µM | AC50 [6]: 17.7 µM | AC50 [7]: > 30 µM | AC50 [4]: > 30 µM | AC50 [8]: > 30 µM | AC50 [9]: 24 µM

O=C(O)[C@H](O)[C@@H](O)[C@H](O)[C@H](O)CO [GLUCONIC ACID]
AC50 [1]: > 30 µM | AC50 [3]: > 30 µM | AC50 [4]: > 30 µM

CC#CC(=O)N1CCC[C@H]1c1nc(-c2ccc(C(=O)Nc3ccccn3)cc2)c2c(N)nccn12 [ACALABRUTINIB]
AC50 [1]: > 30 µM | AC50 [2]: > 30 µM | AC50 [3]: > 30 µM | AC50 [4]: > 30 µM

CCCCCCCCCCCCCCCC(=O)OC[C@H](COP(=O)([O-])OCC[N+](C)(C)C)OC(=O)CCCCCCCCCCCCCCC [COLFOSCERIL PALMITATE]
AC50 [1]: > 30 µM | AC50 [2]: > 30 µM | AC50 [3]: > 30 µM | AC50 [4]: > 30 µM

CN1CCC(N(Cc2cccs2)c2ccccc2)CC1 [THENALIDINE]
AC50 [1]: 0.762 µM | AC50 [2]: > 30 µM | AC50 [3]: > 30 µM | AC50 [4]: > 30 µM

N=C(N)NCC1COc2ccccc2O1 (centres undefined) [GUANOXAN]
AC50 [1]: > 30 µM | AC50 [2]: > 30 µM | AC50 [3]: > 30 µM | AC50 [4]: > 30 µM

CN(C)CCN(Cc1ccccc1)c1ccccn1 [TRIPELENNAMINE]
AC50 [1]: > 30 µM | AC50 [2]: > 30 µM | AC50 [10]: > 10 µM | AC50 [11]: > 10 µM | AC50 [3]: > 30 µM | AC50 [6]: > 10 µM | AC50 [7]: > 10 µM | AC50 [4]: > 30 µM | AC50 [8]: > 30 µM

CC(C)NC[C@H](O)COc1ccc(O)cc1 [PRENALTEROL]
AC50 [1]: > 30 µM | AC50 [2]: > 30 µM | AC50 [3]: > 30 µM | AC50 [4]: 5.86 µM

COc1cccc2c1C(=O)c1c(O)c3c(c(O)c1C2=O)C[C@@](O)(C(=O)CO)C[C@@H]3O[C@H]1C[C@H](N)[C@H](O[C@@H]2CCCCO2)[C@H](C)O1 [PIRARUBICIN]
AC50 [1]: > 10 µM | AC50 [2]: > 30 µM | AC50 [3]: > 30 µM | AC50 [4]: 1.57 µM

Cc1cc(C)cc(OCC2CNC(=O)O2)c1 (centres undefined) [METAXALONE]
AC50 [1]: > 30 µM | AC50 [2]: > 30 µM | AC50 [3]: > 30 µM | AC50 [4]: > 30 µM

N#Cc1ccnc(N2C(=O)CC[C@H]2C(=O)N(c2cncc(F)c2)[C@H](C(=O)NC2CC(F)(F)C2)c2ccccc2Cl)c1 [IVOSIDENIB]
AC50 [1]: > 30 µM | AC50 [2]: > 30 µM | AC50 [3]: > 30 µM | AC50 [4]: > 30 µM

NC(=O)C1(N2CCCCC2)CCN(CCCC(=O)c2ccc(F)cc2)CC1 [PIPAMPERONE]
AC50 [1]: > 30 µM | AC50 [2]: > 30 µM | AC50 [3]: > 30 µM | AC50 [4]: > 30 µM

C[C@]12CC[C@@H]3c4ccc(OC(=O)N(CCCl)CCCl)cc4CC[C@H]3[C@@H]1CC[C@@H]2OP(=O)(O)O [ESTRAMUSTINE PHOSPHATE]
AC50 [1]: > 30 µM | AC50 [2]: 2.03 µM | AC50 [3]: > 30 µM | AC50 [4]: > 30 µM

CCOC(=O)[C@H](CCc1ccccc1)N[C@@H](C)C(=O)N1Cc2ccccc2C[C@H]1C(=O)O
AC50 [5]: > 30 µM | AC50 [2]: > 30 µM | AC50 [10]: > 10 µM | AC50 [3]: > 30 µM | AC50 [6]: > 30 µM | AC50 [7]: > 30 µM | AC50 [4]: > 30 µM | AC50 [8]: > 10 µM | AC50 [9]: > 10 µM

CC1=C(C/C=C(\C)CCC[C@H](C)CCC[C@H](C)CCCC(C)C)C(=O)c2ccccc2C1=O [PHYTONADIONE]
AC50 [1]: > 30 µM | AC50 [3]: > 30 µM | AC50 [4]: 13.4 µM

CCCCCCO[C@@H](C)c1cccc(-c2csc(NC(=O)c3cc(Cl)c(/C=C(\C)C(=O)O)c(Cl)c3)n2)c1OC [LUSUTROMBOPAG]
AC50 [1]: 16.2 µM | AC50 [2]: 2.91 µM | AC50 [3]: > 30 µM | AC50 [4]: 6.42 µM

CC(C)Nc1cccnc1N1CCN(C(=O)c2cc3cc(NS(C)(=O)=O)ccc3[nH]2)CC1 [DELAVIRDINE]
AC50 [1]: 16.4 µM | AC50 [2]: > 30 µM | AC50 [3]: > 30 µM | AC50 [4]: > 30 µM

Cc1cccc(C)c1NC(=O)c1cc(S(N)(=O)=O)c(Cl)cc1O [XIPAMIDE]
AC50 [1]: > 30 µM | AC50 [3]: > 30 µM | AC50 [4]: > 30 µM

CCCCCCCC/C=C\CCCCCCCC(=O)O [OLEIC ACID]
AC50 [1]: 13.2 µM | AC50 [2]: > 30 µM | AC50 [3]: > 30 µM | AC50 [4]: 3.54 µM

CC(C)(Oc1ccc(Cl)cc1)C(=O)NC(=O)NCN1CCOCC1 [PLAFIBRIDE]
AC50 [1]: > 30 µM | AC50 [2]: > 30 µM | AC50 [3]: > 30 µM | AC50 [4]: > 30 µM

C=CCOc1ccc(CC(=O)O)cc1Cl [ALCLOFENAC]
AC50 [1]: > 30 µM | AC50 [2]: > 30 µM | AC50 [3]: > 30 µM | AC50 [4]: > 3 µM

CO[C@@]1(NC(=O)C(C(=O)O)c2ccc(O)cc2)C(=O)N2C(C(=O)O)=C(CSc3nnnn3C)CO[C@@H]21 (some centres undefined) [MOXALACTAM]
AC50 [1]: > 30 µM | AC50 [2]: > 30 µM | AC50 [3]: > 30 µM | AC50 [4]: > 30 µM
